In patent publication EP4215195A1, “LANATOSIDE C, CLOPIDOGREL, AND R406 IN TREATMENT OF CVD-CLONAL HEMATOPOIESIS OF INDETERMINATE POTENTIAL (CVD-CHIP)” (Genome Biologics UG, priority 2022, dated 2023):

What was measured:
[1] = tested on: CHIP (siTET2) myeloid cells; assay: Synthetic lethality screen of a CVD drug library, alamarBlue Cell Viability assay, CHIP cells; type: cell-based; settings: THP-1 cells with TET2 siRNA knockdown; drugs 100 µM, 48 hours; compared with Vehicle
Method: (§1) The established disease model can subsequently be used for drug screening. Thus, a synthetic lethality screening of a CVD (cardiovascular disease) drug library was performed, treating CHIP (siTET2) or healthy (siScr) myeloid cells.
(§2) THP-1 cells were purchased from DSMZ (ACC 16) and maintained in RPMI-1640 (Gibco) +10% Fetal Calf Serum, 1% Penicillin/Streptomycin, 1% Glutamine, 0.05 mM 2-Mercaptoethanol.
(§3) THP-1 cells were differentiated from monocytes to macrophages by supplementing the media 100 ng/mL PMA and culturing for 48 h, and then in PMA-free media for another 24 h. For routine culturing, cells were maintained at 37°C, 5% CO2, 20% O2. In cardiopathologic culturing, both THP1 cells and organoids were maintained hypoxic conditions at 37°C, 5% CO2, 1% O2.
(§4) Transfection of THP-1 cells with siRNA purchased as ON-TARGETplus pools from Horizon Discovery (TET2 siRNA pool containing: ACAAGAAAGUAGAGGGUAU (SEQ ID NO 001), ACACCUAGUUUCAGAGAAU (SEQ ID NO 002), CCUCAGAAUAAUUGUGUGA (SEQ ID NO 003), CAGCAAAGGUACUUGAUAC (SEQ ID NO 004); Control siRNA pool containing: UGGUUUACAUGUUGUGUGA (SEQ ID NO 005), UGGUUUACAUGUUUUCCUA (SEQ ID NO 006)).
(§5) Working solution of 50µM siRNA was prepared in siRNA Buffer (ThermoFisher). 2 µL of 50µM siRNA were mixed with 500 µL OptiMEM and 6.25µL LTX Reagent PLUS (ThermoFisher) and incubated at room temperature (RT) for 15 min. 6.25 µL Lipofectamine LTX was added, mixed, and incubated for 30 min at RT. 500 µL were then added to the target culture and the culture was incubated at 37°C, 5% CO2. Passaging and/or media change was performed after 24 h.
(§6) THP-1 monocytes and macrophages were cocultured overnight (18 h) with siRNA. They were then washed with PBS and used for either TET2 knockdown quality control (as described below) or for the drug screening. For the screening, cells were transferred from tissue culture flasks to 384-well plates. Drugs were added to a final concentration of 100 µM and incubated for 48 hours. An alamarBlue Cell Viability assay (Invitrogen) with a 4 h incubation was performed according to the manufacturer's instructions.

[2] = tested on: healthy (siScr) myeloid cells; assay: Synthetic lethality screen of a CVD drug library, alamarBlue Cell Viability assay, healthy cells; type: cell-based; settings: THP-1 cells with control siRNA; drugs 100 µM, 48 hours; compared with Vehicle
Method: as §1, §2, §3, §4, §5, §6

[3] = tested on: CHIP (siTET2) myeloid cells; assay: Trypan Blue Assay (cell death), CHIP cells; type: cell-based
[4] = tested on: healthy (siScr) myeloid cells; assay: Trypan Blue Assay (cell death), healthy cells; type: cell-based
[5] = tested on: CHIP (siTET2) myeloid cells; assay: Cl. Caspase Assay (apoptosis), CHIP cells; type: cell-based
[6] = tested on: healthy (siScr) myeloid cells; assay: Cl. Caspase Assay (apoptosis), healthy cells; type: cell-based
[7] = tested on: CHIP-infiltrated cardiac organoids (siTET2); assay: cTNT assay (Human Cardiac Troponin T ELISA) in organoid coculture; type: cell-based; settings: siTET2 organoids treated vs Vehicle; healthy = siScr; 3 days of culturing
Method: The cTNT assay was performed using the Human Cardiac Troponin T ELISA® Kit (ab223860, Abcam) following the manufacturer's instructions.

[8] = tested on: CHIP-infiltrated cardiac organoids (siTET2); assay: Cardiomyocyte apoptosis in cardiac organoids (Cleaved Caspase staining colocalized with α-Actinin); type: cell-based, human; settings: siTET2 organoids treated vs Vehicle; healthy = siScr
Source text: To assess the CM death, the inventors used cleaved caspase staining which labels apoptotic cells. […] The increase in CM death in the TET2 KD group is further verified by an increase in cardiac troponin T (cTNT), a prognostic cardiac damage clinical biomarker (* p <0.05).

[9] = tested on: cardiac organoids infiltrated with CHIP myeloid cells; assay: Gene expression (RNA levels of markers) in cardiac organoids infiltrated with CHIP myeloid cells; type: cell-based, human; settings: treated vs Vehicle; normalized to healthy state = 1.0
Method: (§7) Macrophages were differentiated from THP1 monocytes, then treated with siRNAs (18 h incubation), washed, and labeled with Qtracker™ 655 Cell Labeling Kit (ThermoFisher) for 1 h according to the manufacturer's instructions, washed with PBS, and dissociated with 0.05% trypsin. Macrophages were then added to organoids and cultured at 37°C, 5% CO2, and 1%O2. Cultures were maintained in 96-well U-bottom plates.
(§8) Immunostaining, RNA extraction and cTNT assays were run after 3 days of culturing.

[10] = tested on: CHIP-infiltrated cardiac organoids (siTET2); assay: Myeloid cell infiltration into cardiac organoids (Qtracker staining, coculture); settings: siTET2 organoids treated vs Vehicle; baseline siScr Vehicle; hypoxic coculture, 3 days
Method: These MCs were utilized in the coculturing system with self-organized human cardiac organoids, where they were tracked using a Qtracker stain.
as §7, §8
After an overnight PFA fixation, the organoids were washed with PBS, then treated with 1% TritonX-100 (in PBS) for 45 minutes. Afterwards, they are incubated with PBS for 10 minutes for washing. 5% horse serum (in PBS) is added to block and incubated for 45 minutes (RT) Primary antibody in 2% horse serum + 0.0002% TritonX-100 was added and the samples were incubated at 4°C overnight. Primary antibodies: Anti-Sarcomeric-actinin (Ab68167, anti-human), Anti-Cleaved Caspase-3 (Ab32042, anti-human). Samples were washed with PBS + 0.002% TritonX-100 6x10min. Secondary antibodies and additional stains were added and incubated for 4h at RT: AlexaFlour 488 (Invitrogen, A11070), AlexaFlour 555 (Invitrogen, A21425), DAPI, Qtracker labelling 655 (Invitrogen, Q25021 MP). Samples were washed by incubating with PBS+0.002%TritonX-100 for 2-3 hours at RT), and mounted on Superfrost Plus Adhesion Slides (ThermoFisher) sing transparent polish to seal the slide sides to the coverslips (Roth). Samples were imaged using SP8 Lightning Leica Confocal Microscope, using a 40x objective (for a total of 800x and 300x magnification with zoom factors and eye lenses).

Q: `CC(=O)O[C@H]1C[C@H](O[C@H]2[C@@H](O)C[C@H](O[C@H]3[C@@H](O)C[C@H](O[C@H]4CC[C@@]5(C)[C@H](CC[C@@H]6[C@@H]5C[C@@H](O)[C@]5(C)[C@@H](C7=CC(=O)OC7)CC[C@]65O)C4)O[C@@H]3C)O[C@@H]2C)O[C@H](C)[C@H]1O[C@@H]1O[C@H](CO)[C@@H](O)[C@H](O)[C@H]1O` [Lanatoside C, lanatoside C] was tested. Which “viability of CHIP myeloid cells (siTET2)” value [1] did it give?
A: selectively inhibit the viability of CHIP myeloid cells (siTET2)

Q: What about the “viability of healthy (siScr) cells” value [2] of the same compound?
A: without compromising the viability of healthy (siScr) cells

Q: And the “levels of cell death of CHIP myeloid cells (Trypan Blue Assay)” value [3]?
A: increase the levels of cell death of CHIP myeloid cells

Q: What about the “cell death of healthy (siScr) cells (Trypan Blue Assay)” value [4] of the same compound?
A: without inflicting harm on the healthy (siScr) cells

Q: What about the “apoptosis of CHIP myeloid cells (CI. Caspase Assay)” value [5] of the same compound?
A: increase the levels of cell death of CHIP myeloid cells (Trypan Blue Assay) and apoptosis in particular

Q: What about the “apoptosis of healthy (siScr) cells (CI. Caspase Assay)” value [6] of the same compound?
A: without inflicting harm on the healthy (siScr) cells

Q: And the “levels of the prognostic marker cTNT” value [7]?
A: decreased back to healthy levels

Q: And the “cardiomyocyte apoptosis levels (areas of Cleaved Caspase staining)” value [8]?
A: decreased areas of Cleaved Caspase staining back towards healthy levels

Q: What about the “RNA levels of myeloid, inflammatory, heart failure and fibrotic markers” value [9] of the same compound?
A: rescued upon treatment with the 3 aforementioned drugs back down towards healthy levels (≤1.0)

Q: What about the “infiltration of myeloid cells into organoids (Qtracker-stained area)” value [10] of the same compound?
A: decreased levels of Qtracker-stained area upon treatment of siTET2 cells back to the baseline healthy levels

Q: For Escin, which “viability of CHIP myeloid cells (siTET2)” value [1] is on record?
A: only Ginsenoside Rb1 was found to do so significantly

Q: `CCCCC[C@H](O)CC[C@@H]1[C@H]2Cc3cccc(OCC(=O)O)c3C[C@H]2C[C@H]1O` [Treprostinil Sodium] was tested. Which “viability of healthy (siScr) cells” value [2] did it give?
A: also decrease the viability of healthy cells

Q: What does the source list for `COC(=O)[C@H](c1ccccc1Cl)N1CCc2sccc2C1` [Clopidogrel, clopidogrel]?
A: viability of CHIP myeloid cells (siTET2) [1]: selectively inhibit the viability of CHIP myeloid cells (siTET2); viability of healthy (siScr) cells [2]: without compromising the viability of healthy (siScr) cells; levels of cell death of CHIP myeloid cells (Trypan Blue Assay) [3]: increase the levels of cell death of CHIP myeloid cells; cell death of healthy (siScr) cells (Trypan Blue Assay) [4]: without inflicting harm on the healthy (siScr) cells; apoptosis of CHIP myeloid cells (CI. Caspase Assay) [5]: increase the levels of cell death of CHIP myeloid cells (Trypan Blue Assay) and apoptosis in particular; apoptosis of healthy (siScr) cells (CI. Caspase Assay) [6]: without inflicting harm on the healthy (siScr) cells; levels of the prognostic marker cTNT [7]: decreased back to healthy levels; cardiomyocyte apoptosis levels (areas of Cleaved Caspase staining) [8]: decreased areas of Cleaved Caspase staining back towards healthy levels; RNA levels of myeloid, inflammatory, heart failure and fibrotic markers [9]: rescued upon treatment with the 3 aforementioned drugs back down towards healthy levels (≤1.0); infiltration of myeloid cells into organoids (Qtracker-stained area) [10]: decreased levels of Qtracker-stained area upon treatment of siTET2 cells back to the baseline healthy levels

Q: How did the “viability of CHIP myeloid cells (siTET2)” value [1] turn out when `C[C@H]1O[C@@H](O[C@H]2[C@@H](O)C[C@H](O[C@H]3[C@@H](O)C[C@H](O[C@H]4CC[C@@]5(C)[C@H](CC[C@@H]6[C@@H]5CC[C@]5(C)[C@@H](C7=CC(=O)OC7)CC[C@]65O)C4)O[C@@H]3C)O[C@@H]2C)C[C@H](O)[C@@H]1O` [Digitoxin] was run?
A: only Ginsenoside Rb1 was found to do so significantly

Q: Which “viability of healthy (siScr) cells” value [2] does the source give for `CC(=O)Oc1cc(C(F)(F)F)ccc1C(=O)O` [Triflusal] here?
A: also decrease the viability of healthy cells

Q: `CC(C)=CCC[C@](C)(O[C@@H]1O[C@H](CO[C@@H]2O[C@H](CO)[C@@H](O)[C@H](O)[C@H]2O)[C@@H](O)[C@H](O)[C@H]1O)[C@H]1CC[C@]2(C)[C@@H]1[C@H](O)C[C@@H]1[C@@]3(C)CC[C@H](O[C@@H]4O[C@H](CO)[C@@H](O)[C@H](O)[C@H]4O[C@@H]4O[C@H](CO)[C@@H](O)[C@H](O)[C@H]4O)C(C)(C)[C@@H]3CC[C@]12C` [Ginsenoside Rb1] was tested. Which “viability of CHIP myeloid cells (siTET2)” value [1] did it give?
A: found to do so significantly

Q: And the “viability of healthy (siScr) cells” value [2]?
A: also decreases the viability of healthy cells

Q: `CCCSc1nc(N[C@@H]2C[C@H]2c2ccc(F)c(F)c2)c2nnn([C@@H]3C[C@H](OCCO)[C@@H](O)[C@H]3O)c2n1` [Ticagrelor] was tested. Which “viability of healthy (siScr) cells” value [2] did it give?
A: also decrease the viability of healthy cells

Q: Which results are given for `COc1cc(Nc2ncc(F)c(Nc3ccc4c(n3)NC(=O)C(C)(C)O4)n2)cc(OC)c1OC` [R406]?
A: viability of CHIP myeloid cells (siTET2) [1]: selectively inhibit the viability of CHIP myeloid cells (siTET2); viability of healthy (siScr) cells [2]: without compromising the viability of healthy (siScr) cells; levels of cell death of CHIP myeloid cells (Trypan Blue Assay) [3]: increase the levels of cell death of CHIP myeloid cells; cell death of healthy (siScr) cells (Trypan Blue Assay) [4]: without inflicting harm on the healthy (siScr) cells; apoptosis of CHIP myeloid cells (CI. Caspase Assay) [5]: increase the levels of cell death of CHIP myeloid cells (Trypan Blue Assay) and apoptosis in particular; apoptosis of healthy (siScr) cells (CI. Caspase Assay) [6]: without inflicting harm on the healthy (siScr) cells; levels of the prognostic marker cTNT [7]: decreased back to healthy levels; cardiomyocyte apoptosis levels (areas of Cleaved Caspase staining) [8]: decreased areas of Cleaved Caspase staining back towards healthy levels; RNA levels of myeloid, inflammatory, heart failure and fibrotic markers [9]: rescued upon treatment with the 3 aforementioned drugs back down towards healthy levels (≤1.0); infiltration of myeloid cells into organoids (Qtracker-stained area) [10]: decreased levels of Qtracker-stained area upon treatment of siTET2 cells back to the baseline healthy levels
